In patent US12673930B2, “Thiophene HSD17B13 inhibitors and uses thereof” (INIPHARM, INC., priority 2020, dated 2026) one finds IC50 data, which are given here for 11 compounds.

Molecules are shown by their SMILES.

For experiment [1], the target named is T1, HSD17B13 enzyme (Homo sapiens, UniProt Q7Z5P4).
T1 construct: His; made in house; host or cells: E. coli
T1 sequence (Q7Z5P4 20-300): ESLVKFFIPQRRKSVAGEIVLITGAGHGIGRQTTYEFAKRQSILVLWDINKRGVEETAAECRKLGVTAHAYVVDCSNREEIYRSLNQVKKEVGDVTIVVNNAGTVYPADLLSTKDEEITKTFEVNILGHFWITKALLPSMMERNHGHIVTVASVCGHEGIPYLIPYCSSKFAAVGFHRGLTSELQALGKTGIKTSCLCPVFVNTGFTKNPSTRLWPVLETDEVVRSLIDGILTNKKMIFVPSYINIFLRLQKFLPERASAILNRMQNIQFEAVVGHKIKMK
As to the kind of experiment: NADH detection assay (fluorescence based Leukotriene B3 (LTB3) assay) for HSD17B13 activity. The class given is biochemical. The note with it: substrate 25 μM LTB3, 3 mM NAD+, 125 nM HSD17B13 enzyme, 1 hour at 26.5° C. The protocol: The fluorescence based Leukotriene B3 (LTB3) assay monitors the fluorescence of NADH, which is generated from NAD+ during the dehydrogenation of the substrate LTB3. The reactions were performed in a 384-well plates (Greiner; #655076) in a 20 μl reaction volume containing the following reagents (final concentrations): 25 μM LTB3 (Cayman; #20109); 3 mM NAD^+ (Sigma; #N0623); 125 nM HSD17B13 enzyme (in-house; E. coli expressed His-tagged, purified, soluble protein); 1 M potassium phosphate buffer, pH 7.4; and 1% DMSO. Reactions were initiated by co-addition of NAD+ and enzyme, and monitored for 1 hour at 26.5° C. Generation of NADH was measured as the fluorescence signal (Excitation at 340 nm and Emission at 445 nm) at 1 hour minus the baseline fluorescence at t=0. Fluorescence signals in the absence of LTB3 (negative control values), were subtracted from all values so that the results reflected substrate-dependent production of NADH. NADH standards were included to allow the conversion of relative fluorescence units into rates of enzyme activity. Enzyme activity in the presence of test compounds was expressed as a percentage of the uninhibited enzyme activity, and plotted versus inhibitor concentration. Non-linear regression was performed using a four-parameter logistic model and Microsoft Excel Solver® software. Ten concentrations of inhibitor were tested in duplicate (in the range of 30 μM-2.5 nM). Two independent concentration response assays were performed and the geometric mean is reported, =/−the SEM.

The target of experiment [2] is T1, HSD17B13 enzyme. The experiment is described as follows: LC/MS estrone detection assay (conversion of estradiol to estrone by HSD17B13). The format is biochemical. The settings on record: substrate 4 μM estradiol, 6 mM NAD+, 30 nM HSD17B13 enzyme, 2 hours at 26.5° C. On the procedure: The liquid chromatography/mass spectrometry (LC/MS) estrone detection assay monitors the conversion of estradiol to estrone by HSD17B13. This assay was performed in a 96 wp format (Eppendorf deep well Plate 96/500) in an 80 μl reaction volume containing: 4 μM estradiol (E2; Cayman; Ser. No. 10/006,315); 6 mM NAD^+ (Sigma; #N0623), and 30 nM HSD17B13 enzyme (in-house; E. coli expressed His-tagged, purified, soluble protein), in a buffer containing 1M potassium phosphate buffer pH 7.4 and 0.5% vehicle (DMSO). Reactions were incubated for 2 hours at 26.5° C., and estradiol (E2) conversion to estrone (E1) was quantitated by LC-MS/MS based analyte detection for E1 using LCMS grade reagents. Reactions were terminated by the addition of two volumes of acetonitrile (MeCN; LCMS grade; CAS #75/05/8) containing deuterated (D4)-E1 as internal standard (Clear Synth; #CS-T-54273; 500 ng/mL final concentration). Samples were applied to pre-prepared Bond Elut-C18 extraction cartridges (3 mL; Agilent; Ser. No. 12/102,028), and washed and eluted in MeCN. Eluates were dried under nitrogen and re-suspended in 60% methanol (LCMS grade methanol; CAS #67/56/1) before submission for analysis. Standard curves for E1 were included for quantification. Analysis of samples was undertaken on a XBridge BEH C18 column (Waters; #186003033) using 0.1% Diethyl Amine in MeCN (mobile phase A; DEA CAS #109-89-7) and 0.1% Diethyl Amine in milli-Q water (mobile phase B) in a 3 min gradient up to 25% B. Analytes were detected in negative mode using MRM analysis, with E2 having a RT of 1.85 min and E1 having a RT of 2 min. Activity of the enzyme in the absence of NAD^+, was subtracted from samples to yield values for specific enzyme activity. Enzyme activity in the presence of test samples was expressed as a percentage of the uninhibited enzyme activity, and plotted versus inhibitor concentration. Non-linear regression was performed using the Morrison equation (see below) for tight binding inhibitors on GraphPad Prism software (GraphPad Software, La Jolla, Calif.). All assessments were undertaken in duplicate evaluations which were pooled during the extraction process and subsequently injected as duplicates for LC-MS/MS analysis. Y=Vo*(1−((((Et+X+Q)−(((Et+X+Q)^2)−4*Et*X)^0.5))/(2*Et))) Morrison equation:
Y=Activity in the presence of inhibitor; Vo=Activity in absence of inhibitor; Et=Total enzyme concentration; X=inhibitor concentration; and Q=(Ki*(1+(S/Km))), where Ki is the inhibition constant, Km is the Michaelis constant, and S is the substrate concentration.

A word on the IC50: it is the concentration needed to halve the response being measured. For `CC(C)(C)CCNC(=O)c1sc2cnccc2c1NC(=O)c1ccc(O)c(F)c1` [Example 19, N-(3,3-dimethylbutyl)-3-(3-fluoro-4-hydroxybenzamido)thieno[2,3-c]pyridine-2-carboxamide], the IC50 was above 10 µM against HSD17B13 enzyme [1] and 0.1 to 1 µM against HSD17B13 enzyme [2].
The matching figures for `COc1ccccc1CCNC(=O)c1sccc1NC(=O)Cc1ccc(O)c(Cl)c1` [Example 20, 3-(2-(3-chloro-4-hydroxyphenyl)acetamido)-N-(2-methoxyphenethyl)thiophene-2-carboxamide]: above 10 µM and 0.1 to 1 µM.
Consider `COc1ccccc1CCNC(=O)c1sccc1NC(=O)c1ccc(S(=O)(=O)NC(=O)c2ccccc2)c(Cl)c1` [Example 24, 3-(4-(N-benzoylsulfamoyl)-3-chlorobenzamido)-N-(2-methoxyphenethyl)thiophene-2-carboxamide], for which the half-inhibitory concentration (IC50) against HSD17B13 enzyme [1] is above 10 µM; against HSD17B13 enzyme [2], 1 to 10 µM.
As to `COc1ccccc1CCNC(=O)c1sccc1NC(=O)c1ccc(OC(F)(F)C(=O)O)c(Cl)c1` [Example 25, 2-(2-chloro-4-((2-((2-methoxyphenethyl)carbamoyl)thiophen-3-yl)carbamoyl)phenoxy)-2,2-difluoroacetic acid], the IC50 is above 10 µM at HSD17B13 enzyme [1] and 1 to 10 µM at HSD17B13 enzyme [2].
Taken in the same sequence, the figures for `COc1ccccc1CCNC(=O)c1sccc1NC(=O)c1ccc(S(N)(=O)=O)c(Cl)c1` [Example 26, 3-(3-chloro-4-sulfamoylbenzamido)-N-(2-methoxyphenethyl)thiophene-2-carboxamide] were above 10 µM and above 10 µM.
As to `COc1ccccc1CCNC(=O)c1sccc1NC(=O)c1ccc(C(F)(F)C(=O)O)c(F)c1` [Example 27, 2,2-difluoro-2-(2-fluoro-4-((2-((2-methoxyphenethyl)carbamoyl)thiophen-3-yl)carbamoyl)phenyl)acetic acid], the IC50 against HSD17B13 enzyme [1] and against HSD17B13 enzyme [2] was above 10 µM each time.
With `COc1ccccc1CCNC(=O)c1sccc1NC(=O)c1ccc2[nH]nc(Cl)c2c1` [Example 28, 3-chloro-N-(2-((2-methoxyphenethyl)carbamoyl)thiophen-3-yl)-1H-indazole-5-carboxamide], the IC50 on HSD17B13 enzyme [1] and against HSD17B13 enzyme [2] was above 10 µM in each case.
Turning to `COc1ccccc1CCNC(=O)c1sccc1NC(=O)c1ccc(N2CCC(C(=O)O)C2)c(Cl)c1` (stereo not shown) [Example 29, 1-(2-chloro-4-((2-((2-methoxyphenethyl)carbamoyl)thiophen-3-yl)carbamoyl)phenyl)pyrrolidine-3-carboxylic acid], the IC50 was above 10 µM on HSD17B13 enzyme [1] and 1 to 10 µM at HSD17B13 enzyme [2].
Taken in the same sequence, the figures for `COc1ccccc1CCNC(=O)c1sccc1NC(=O)c1ccc(O)c(F)c1` [Example 30, 3-(3-fluoro-4-hydroxybenzamido)-N-(2-methoxyphenethyl)thiophene-2-carboxamide] were at most 1 µM and at most 0.1 µM.
The matching figures for `COc1ccccc1CCNC(=O)c1sc2ccccc2c1NC(=O)c1ccc(O)c(Cl)c1` [Example 31, 3-(3-chloro-4-hydroxybenzamido)-N-(2-methoxyphenethyl)benzo[b] thiophene-2-carboxamide]: at most 1 µM and 0.1 to 1 µM.
The matching figures for `COc1ccccc1CCNC(=O)c1sccc1NC(=O)c1ccc(O)c(C(F)(F)F)c1` [Example 33, 3-(4-hydroxy-3-(trifluoromethyl)benzamido)-N-(2-methoxyphenethyl)thiophene-2-carboxamide]: above 10 µM and at most 0.1 µM.
